# Measurements taken from ChEMBL document CHEMBL5137058, “Therapeutic Strategies to Target the Androgen Receptor” (J Med Chem, 2022).
# Key:
# [1] = biological target: T1, von Hippel-Lindau disease tumor suppressor/Androgen receptor (Homo sapiens, UniProt P10275+P40337); assay: Protac activity at VHL/Androgen receptor in human LNCaP cells assessed as Androgen receptor degradation; assay type: cell-based
# Target sequence in this assay (P10275 whole entry): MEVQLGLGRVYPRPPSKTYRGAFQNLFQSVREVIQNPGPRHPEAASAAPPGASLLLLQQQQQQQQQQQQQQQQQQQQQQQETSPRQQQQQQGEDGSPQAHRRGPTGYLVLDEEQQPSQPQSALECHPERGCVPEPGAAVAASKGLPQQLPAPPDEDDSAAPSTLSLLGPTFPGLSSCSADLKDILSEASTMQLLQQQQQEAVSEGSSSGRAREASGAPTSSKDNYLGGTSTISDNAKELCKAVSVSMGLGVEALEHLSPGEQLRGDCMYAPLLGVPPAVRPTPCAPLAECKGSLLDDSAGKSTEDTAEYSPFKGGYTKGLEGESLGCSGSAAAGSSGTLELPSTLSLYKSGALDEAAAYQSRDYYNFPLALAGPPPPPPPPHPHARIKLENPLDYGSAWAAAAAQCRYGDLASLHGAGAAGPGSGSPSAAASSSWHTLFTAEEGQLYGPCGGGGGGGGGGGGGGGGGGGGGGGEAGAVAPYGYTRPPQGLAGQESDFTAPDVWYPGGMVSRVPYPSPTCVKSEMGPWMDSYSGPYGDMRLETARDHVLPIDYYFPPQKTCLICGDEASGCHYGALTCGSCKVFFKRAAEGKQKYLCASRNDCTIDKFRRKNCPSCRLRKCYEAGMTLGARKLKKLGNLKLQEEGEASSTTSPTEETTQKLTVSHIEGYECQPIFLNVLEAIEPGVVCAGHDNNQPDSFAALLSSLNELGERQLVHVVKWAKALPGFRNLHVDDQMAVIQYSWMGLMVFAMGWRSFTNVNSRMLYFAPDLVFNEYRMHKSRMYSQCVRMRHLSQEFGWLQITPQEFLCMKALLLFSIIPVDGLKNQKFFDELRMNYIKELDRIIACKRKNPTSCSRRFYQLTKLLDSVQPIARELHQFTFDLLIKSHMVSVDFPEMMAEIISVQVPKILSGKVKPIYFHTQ
# Target sequence in this assay (P40337 whole entry): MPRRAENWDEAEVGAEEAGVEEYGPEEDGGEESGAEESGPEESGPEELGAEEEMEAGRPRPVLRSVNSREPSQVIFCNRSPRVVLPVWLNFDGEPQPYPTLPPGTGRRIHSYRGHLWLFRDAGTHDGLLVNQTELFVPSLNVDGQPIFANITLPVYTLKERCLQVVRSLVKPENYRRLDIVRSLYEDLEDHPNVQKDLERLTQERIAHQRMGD
# [2] = biological target: T1, von Hippel-Lindau disease tumor suppressor/Androgen receptor; assay: Protac activity at VHL/Androgen receptor in human VCaP cells assessed as Androgen receptor degradation; assay type: cell-based
# Target sequence in this assay (P10275 whole entry): as the sequence (P10275 whole entry) above
# Target sequence in this assay (P40337 whole entry): as the sequence (P40337 whole entry) above
# [3] = biological target: T1, von Hippel-Lindau disease tumor suppressor/Androgen receptor; assay: Protac activity at VHL (unknown origin)/Androgen receptor (unknown origin) assessed as full-length Androgen receptor degradation measured by immunoblotting method; assay type: protein assay
# Target sequence in this assay (P10275 whole entry): as the sequence (P10275 whole entry) above
# Target sequence in this assay (P40337 whole entry): as the sequence (P40337 whole entry) above
# [4] = biological target: T1, von Hippel-Lindau disease tumor suppressor/Androgen receptor; assay: Protac activity at VHL (unknown origin)/Androgen receptor splice variant7 (unknown origin) assessed as Androgen receptor degradation measured by immunoblotting method
# Target sequence in this assay (P10275 whole entry, looked up, change not shown): as the sequence (P10275 whole entry) above
# Target sequence in this assay (P40337 whole entry, looked up, change not shown): as the sequence (P40337 whole entry) above
SMILES,DC50 [1] [nM],DC50 [2] [nM],DC50 [3] [nM],DC50 [4] [nM]
Cc1ncsc1-c1ccc([C@H](CC(=O)N2CCC(N3CCC(C#Cc4ccc(C(=O)N[C@H]5C(C)(C)[C@H](Oc6ccc(C#N)c(Cl)c6)C5(C)C)cc4)CC3)CC2)NC(=O)[C@@H]2C[C@@H](O)CN2C(=O)[C@@H](NC(=O)C2(F)CC2)C(C)(C)C)cc1,< 1,< 1,,
Cc1ncsc1-c1ccc([C@H](C)NC(=O)[C@@H]2C[C@@H](O)CN2C(=O)[C@@H](NC(=O)CCCCNC(=O)COc2c(-c3csc(N4CCOCC4)n3)ccc(F)c2F)C(C)(C)C)cc1,,,2000,370
